The values that follow come from patent publication US20130102595A1 (Curis, Inc., priority 2011, published 2013).

The structures appear in SMILES notation. A value given as a limit tells only on which side of the number the result lay.

In series [1] the target is T1, PI3Kα (p110α/p85α) (Homo sapiens, UniProt P42336).
T1 construct: GST (N); made in house; host or cells: Baculovirus-infected Sf9 cells
Put plainly: PI3Kα ADP-Glo assay. It counts as biochemical. The conditions noted are these: 20 μM PIP2, 10 μM ATP, 30 minutes. The procedure, abridged:
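Luminescent ADP-Glo detection, after depletion of residual ATP, quantified ADP made by PI3Kα phosphorylating 20 μM PIP2 at 10 μM ATP. The kinase step ran 30 min at room temperature in HEPES pH 7.4 with MgCl2, DTT and orthovanadate, using baculovirus/Sf9-expressed full-length p110α/p85α complex.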

In series [2] the test system is HDACs (HeLa cell nuclear extracts). Nature of the series: HDAC enzymatic activity, Biomol Color de Lys system. The format is biochemical. The conditions noted are these: 1 hour, 25° C. An outline of the steps:
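IC50 from sigmoidal fit of developer-terminated fluorescence (ex 350-380/em 440-460 nm). Reaction: 1 h at room temperature (25 °C), HeLa nuclear extract as HDAC source, artificial substrate, buffer of 50 mM Tris/Cl pH 8.0 with 137 mM NaCl, 2.7 mM KCl and 1 mM MgCl2.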

T1 sequence (P42336 whole entry): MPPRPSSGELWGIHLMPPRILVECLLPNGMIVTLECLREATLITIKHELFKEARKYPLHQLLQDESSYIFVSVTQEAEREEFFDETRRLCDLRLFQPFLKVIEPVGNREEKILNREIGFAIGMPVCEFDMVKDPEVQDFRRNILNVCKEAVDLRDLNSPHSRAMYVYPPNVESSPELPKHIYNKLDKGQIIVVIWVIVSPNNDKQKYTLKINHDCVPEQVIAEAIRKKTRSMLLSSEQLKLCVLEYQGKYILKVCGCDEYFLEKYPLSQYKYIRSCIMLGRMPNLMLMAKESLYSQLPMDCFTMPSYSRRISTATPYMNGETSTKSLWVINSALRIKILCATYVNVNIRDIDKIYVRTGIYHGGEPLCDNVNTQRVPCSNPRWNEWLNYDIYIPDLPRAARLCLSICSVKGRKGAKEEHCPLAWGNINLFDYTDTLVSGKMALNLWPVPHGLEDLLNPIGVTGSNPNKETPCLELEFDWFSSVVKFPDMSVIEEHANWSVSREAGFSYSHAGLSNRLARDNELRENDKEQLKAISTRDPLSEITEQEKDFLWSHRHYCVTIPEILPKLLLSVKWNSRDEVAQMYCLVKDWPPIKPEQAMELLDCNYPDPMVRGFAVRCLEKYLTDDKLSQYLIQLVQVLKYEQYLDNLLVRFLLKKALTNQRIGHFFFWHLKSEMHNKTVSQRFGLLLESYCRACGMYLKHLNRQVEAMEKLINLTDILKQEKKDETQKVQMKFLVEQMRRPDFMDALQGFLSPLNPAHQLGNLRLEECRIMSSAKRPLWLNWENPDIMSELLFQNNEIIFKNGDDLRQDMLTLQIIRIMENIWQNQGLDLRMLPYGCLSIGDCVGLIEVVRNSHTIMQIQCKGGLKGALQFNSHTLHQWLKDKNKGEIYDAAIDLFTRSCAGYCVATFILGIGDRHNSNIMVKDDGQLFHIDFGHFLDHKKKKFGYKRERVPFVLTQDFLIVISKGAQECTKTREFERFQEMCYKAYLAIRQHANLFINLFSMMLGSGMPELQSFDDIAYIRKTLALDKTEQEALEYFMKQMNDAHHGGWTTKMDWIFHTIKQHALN
T1 sequence (P27986 whole entry partner): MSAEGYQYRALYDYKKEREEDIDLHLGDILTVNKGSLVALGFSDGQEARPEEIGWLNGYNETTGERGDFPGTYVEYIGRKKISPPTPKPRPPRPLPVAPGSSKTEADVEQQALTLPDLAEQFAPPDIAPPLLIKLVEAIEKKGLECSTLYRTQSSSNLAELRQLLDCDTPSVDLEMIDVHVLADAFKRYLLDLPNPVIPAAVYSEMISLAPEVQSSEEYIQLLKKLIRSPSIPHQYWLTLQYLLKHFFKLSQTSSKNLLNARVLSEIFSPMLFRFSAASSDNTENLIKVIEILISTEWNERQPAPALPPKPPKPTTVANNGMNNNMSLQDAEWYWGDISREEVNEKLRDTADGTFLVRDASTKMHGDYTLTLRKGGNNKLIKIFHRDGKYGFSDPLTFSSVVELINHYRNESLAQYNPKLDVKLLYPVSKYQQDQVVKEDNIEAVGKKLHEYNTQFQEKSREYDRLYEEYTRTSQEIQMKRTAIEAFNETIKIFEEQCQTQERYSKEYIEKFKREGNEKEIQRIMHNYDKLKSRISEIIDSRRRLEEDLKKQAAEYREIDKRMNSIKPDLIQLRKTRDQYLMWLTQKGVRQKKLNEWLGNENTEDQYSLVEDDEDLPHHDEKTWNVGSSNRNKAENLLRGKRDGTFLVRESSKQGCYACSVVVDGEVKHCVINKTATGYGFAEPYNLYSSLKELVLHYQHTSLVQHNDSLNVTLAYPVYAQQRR

`CN(Cc1cc2nc(-c3cccc4[nH]ncc34)nc(Nc3ccccn3)c2s1)c1ncc(C(=O)NO)cn1` [Compound 168, 2-(((2-(1H-indazol-4-yl)-4-(pyridin-2-ylamino)thieno[3,2-d]pyrimidin-6-yl)methyl)(methyl)amino)-N-hydroxypyrimidine-5-carboxamide] registered a melting point of 200 to 203 °C. Further, the IC50 in series [1] was 1000 to 10000 nM. The same compound came in with an IC50 in series [2] of less than 100 nM.
Take `CN(Cc1cc2nc(-c3cccc4[nH]ccc34)nc(N3CCOCC3)c2s1)c1ncc(C(=O)NO)cn1` [Compound 176, 2-(((2-(1H-indol-4-yl)-4-morpholinothieno[3,2-d]pyrimidin-6-yl)methyl)(methyl)amino)-N-hydroxypyrimidine-5-carboxamide]: the melting point was 200 to 212 °C. In series [1], this compound gave an IC50 of 100 to 1000 nM. Besides, the IC50 in series [2] is less than 100 nM.
`CN(Cc1cc2nc(-c3cccc4c3CCN4)nc(N3CCOCC3)c2s1)c1ncc(C(=O)NO)cn1` [Compound 177, N-hydroxy-2-(((2-(indolin-4-yl)-4-morpholinothieno[3,2-d]pyrimidin-6-yl)methyl)(methyl)amino)pyrimidine-5-carboxamide] yielded a melting point of 146 to 156 °C. In series [1], this compound gave an IC50 greater than 10000 nM. In addition, the IC50 in series [2] was less than 100 nM.
The compound `CN(Cc1cc2nc(-c3ccc4c(c3)NCCO4)nc(N3CCOCC3)c2s1)c1ncc(C(=O)NO)cn1` [Compound 182, 2-(((2-(3,4-dihydro-2H-benzo[b][1,4]oxazin-6-yl)-4-morpholinothieno[3,2-d]pyrimidin-6-yl)methyl)(methyl)amino)-N-hydroxypyrimidine-5-carboxamide] returned a melting point of 170 to 183 °C. For the same compound, the IC50 in series [1] is 1000 to 10000 nM. In addition, the IC50 in series [2] is less than 100 nM.
As for `CN(Cc1cc2nc(-c3ccc4[nH]c(=O)[nH]c4c3)nc(N3CCOCC3)c2s1)c1ncc(C(=O)NO)cn1` [Compound 186, N-hydroxy-2-(methyl((4-morpholino-2-(2-oxo-2,3-dihydro-1H-benzo[d]imidazol-5-yl)thieno[3,2-d]pyrimidin-6-yl)methyl)amino)pyrimidine-5-carboxamide], the melting point was 272 to 275 °C. Further, the IC50 in series [1] is greater than 10000 nM. The compound also showed an IC50 in series [2] of less than 100 nM.
For the compound `CN(Cc1cc2nc(-c3ccc4c(c3)CC(=O)N4)nc(N3CCOCC3)c2s1)c1ncc(C(=O)NO)cn1` [Compound 194, N-hydroxy-2-(methyl((4-morpholino-2-(2-oxoindolin-5-yl)thieno[3,2-d]pyrimidin-6-yl)methyl)amino)pyrimidine-5-carboxamide], the melting point is 270 °C (dec.). Further, the IC50 in series [1] is greater than 10000 nM. The compound also registered an IC50 in series [2] of less than 100 nM.
On the same counts, the results for `CN(Cc1cc2nc(-c3cn[nH]c3)nc(N3CCOCC3)c2s1)c1ncc(C(=O)NO)cn1` [Compound 196, N-hydroxy-2-(methyl((4-morpholino-2-(1H-pyrazol-4-yl)thieno[3,2-d]pyrimidin-6-yl)methyl)amino)pyrimidine-5-carboxamide] are 214 to 217 °C, 100 to 1000 nM and less than 100 nM.
On the same counts, the results for `CN(Cc1cc2nc(-c3cc[nH]c3)nc(N3CCOCC3)c2s1)c1ncc(C(=O)NO)cn1` [Compound 197, N-hydroxy-2-(methyl((4-morpholino-2-(1H-pyrrol-3-yl)thieno[3,2-d]pyrimidin-6-yl)methyl)amino)pyrimidine-5-carboxamide] are 175 to 189 °C, less than 100 nM and less than 100 nM.
`CN(Cc1cc2nc(-c3ccc(F)cc3)nc(N3CCOCC3)c2s1)c1ncc(C(=O)NO)cn1` [Compound 200, 2-(((2-(4-fluorophenyl)-4-morpholinothieno[3,2-d]pyrimidin-6-yl)methyl)(methyl)amino)-N-hydroxypyrimidine-5-carboxamide] showed a melting point of 168 to 170 °C. This compound came in with an IC50 in series [1] greater than 10000 nM. The same compound had an IC50 in series [2] of less than 100 nM.
